Our source for the IC50 values is BindingDB's records for doi:10.1016/S0960-894X(97)00285-0 (1997).

SMILES strings stand for the structures. Counter-ions that a name gives are not always drawn.

In this assay the target is Prostate-specific antigen (Homo sapiens) (UniProt P07288). Kind of assay: Concentration required for inhibition of 50% of the cleavage of para-nitroanilide from MeO-Suc-Arg-Pro-Tyr-pNA.HCl by Prostate specific antigen PSA.
Prostate-specific antigen (Homo sapiens), sequence (P07288 whole entry, looked up): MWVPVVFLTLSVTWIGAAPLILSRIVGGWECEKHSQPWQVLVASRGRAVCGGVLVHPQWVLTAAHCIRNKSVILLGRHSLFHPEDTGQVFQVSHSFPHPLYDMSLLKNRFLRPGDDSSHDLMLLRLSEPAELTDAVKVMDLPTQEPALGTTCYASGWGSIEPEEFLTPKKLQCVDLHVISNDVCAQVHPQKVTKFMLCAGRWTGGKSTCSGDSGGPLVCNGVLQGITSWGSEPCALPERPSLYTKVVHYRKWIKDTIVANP

The term IC50 denotes the concentration that gives 50% inhibition. Read a low IC50 as inhibition by little substance. As for `O=C(O)c1ccc(COC(=O)[C@@H]2[C@H](Cc3ccccc3)C(=O)N2C(=O)Cc2cccc(C(=O)O)c2)cc1` [3-Benzyl-1-[2-(3-carboxy-phenyl)-acetyl]-4-oxo-azetidine-2-carboxylic acid 4-carboxy-benzyl ester], the 50% inhibitory concentration (IC50) is above 30000 nM.

`NCc1ccc(COC(=O)[C@@H]2[C@H](Cc3ccccc3)C(=O)N2C(=O)Cc2cccc(C(=O)O)c2)cc1` [(2S,3S)-3-Benzyl-1-[2-(3-carboxy-phenyl)-acetyl]-4-oxo-azetidine-2-carboxylic acid 4-aminomethyl-benzyl ester; TFA] displayed an IC50 of 1340 nM.
